Data on 12 compounds can be found in ChEMBL document CHEMBL3856285, “Recent progress in the identification of adenosine monophosphate-activated protein kinase (AMPK) activators” (Bioorg Med Chem Lett, 2016).

For experiment [1], the target named is T1, AMPK alpha2/beta2/gamma1 (Homo sapiens) (UniProt P54646+O43741+P54619). The experiment in a line: Activation of full length human His6-tagged AMPK alpha2/beta2/gamma1 expressed in Escherichia coli BL21-CodonPlus (DE3)-RIPL using FL-Peptide 7 substrate incubated for 2 hrs by fluorescence assay.
T1 sequence (P54619 whole entry, looked up, one chain of several): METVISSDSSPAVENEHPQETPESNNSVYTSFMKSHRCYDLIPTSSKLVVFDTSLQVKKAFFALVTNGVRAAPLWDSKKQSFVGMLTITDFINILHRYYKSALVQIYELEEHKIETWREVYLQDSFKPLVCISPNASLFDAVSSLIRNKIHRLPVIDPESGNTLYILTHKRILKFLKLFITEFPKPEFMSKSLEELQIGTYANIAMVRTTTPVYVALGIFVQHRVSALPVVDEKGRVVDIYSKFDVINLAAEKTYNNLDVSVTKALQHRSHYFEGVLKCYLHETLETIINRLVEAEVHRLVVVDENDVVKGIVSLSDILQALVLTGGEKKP
T1 sequence (P54646 whole entry, looked up, one chain of several): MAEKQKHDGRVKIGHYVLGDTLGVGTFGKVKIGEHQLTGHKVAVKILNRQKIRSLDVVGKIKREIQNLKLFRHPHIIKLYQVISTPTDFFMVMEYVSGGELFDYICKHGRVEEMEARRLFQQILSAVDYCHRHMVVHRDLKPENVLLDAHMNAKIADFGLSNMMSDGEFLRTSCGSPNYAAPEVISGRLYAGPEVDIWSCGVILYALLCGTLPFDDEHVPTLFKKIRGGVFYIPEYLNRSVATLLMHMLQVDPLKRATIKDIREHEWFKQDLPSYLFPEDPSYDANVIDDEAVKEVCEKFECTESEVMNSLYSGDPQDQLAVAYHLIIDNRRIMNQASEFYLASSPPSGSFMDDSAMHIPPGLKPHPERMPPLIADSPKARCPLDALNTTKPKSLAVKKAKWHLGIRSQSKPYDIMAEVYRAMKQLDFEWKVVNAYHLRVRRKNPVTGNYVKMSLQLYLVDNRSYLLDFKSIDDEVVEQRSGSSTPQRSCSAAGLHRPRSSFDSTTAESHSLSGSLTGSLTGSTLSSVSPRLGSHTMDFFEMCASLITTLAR
Experiment [2] deals with T1, AMPK alpha2/beta2/gamma1 (Homo sapiens). The experiment can be described thus: Activation of full length human His6-tagged AMPK alpha2/beta2/gamma1 expressed in Escherichia coli BL21-CodonPlus (DE3)-RIPL using FL-Peptide 7 substrate incubated for 2 hrs by fluorescence assay relative to AMP.
Experiment [3] concerns the target T2, AMP-activated protein kinase (AMPK) alpha-1/beta-1/gamma-1 (Homo sapiens) (UniProt P54619+Q9Y478+Q13131). The experiment can be described thus: Activation of full length human recombinant AMPK alpha1/beta1/gamma1 expressed in baculovirus infected sf21 cells using 5'-FAM-SAMS peptide substrate after 45 mins by fluorescence assay relative to AMP.
Experiment [4] deals with T3, AMP-activated protein kinase (AMPK) alpha-1/beta-1/gamma-1 (Homo sapiens, UniProt P54619+Q13131+Q9Y478). The experiment can be described thus: Activation of full length human recombinant AMPK alpha1/beta1/gamma1 expressed in baculovirus infected sf21 cells using 5'-FAM-SAMS peptide substrate after 45 mins by fluorescence assay.
T3 sequence (P54619 whole entry, one chain of several): as the sequence (P54619 whole entry, looked up, one chain of several) above
T3 sequence (Q13131 whole entry, one chain of several): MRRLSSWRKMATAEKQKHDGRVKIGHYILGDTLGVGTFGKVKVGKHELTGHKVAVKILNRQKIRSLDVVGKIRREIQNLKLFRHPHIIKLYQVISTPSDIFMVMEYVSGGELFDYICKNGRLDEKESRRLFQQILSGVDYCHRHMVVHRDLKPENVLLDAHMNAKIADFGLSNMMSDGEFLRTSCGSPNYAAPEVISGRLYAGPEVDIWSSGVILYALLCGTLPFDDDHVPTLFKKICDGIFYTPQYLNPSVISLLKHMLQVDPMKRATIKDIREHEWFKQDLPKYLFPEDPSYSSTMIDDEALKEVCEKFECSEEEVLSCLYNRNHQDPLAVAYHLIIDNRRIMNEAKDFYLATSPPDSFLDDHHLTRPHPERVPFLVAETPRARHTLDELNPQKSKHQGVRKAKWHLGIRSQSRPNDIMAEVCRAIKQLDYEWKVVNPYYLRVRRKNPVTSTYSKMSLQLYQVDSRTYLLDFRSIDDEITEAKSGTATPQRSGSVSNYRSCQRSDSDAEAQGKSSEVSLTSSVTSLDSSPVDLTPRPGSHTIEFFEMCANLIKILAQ
Experiment [5] addresses T2, AMP-activated protein kinase (AMPK) alpha-1/beta-1/gamma-1 (Homo sapiens). The experiment can be described thus: Activation of full length human recombinant AMPK alpha1/beta1/gamma1 expressed in baculovirus infected sf21 cells using SAMS peptide substrate after 30 mins in presence of [33P]ATP by TopCount analysis relative to AMP.
The target in experiment [6] is T3, AMP-activated protein kinase (AMPK) alpha-1/beta-1/gamma-1. The experiment in a line: Activation of full length human recombinant AMPK alpha1/beta1/gamma1 expressed in baculovirus infected sf21 cells using SAMS peptide substrate after 30 mins in presence of [33P]ATP by TopCount analysis.
Experiment [7] deals with T1, AMPK alpha2/beta2/gamma1 (Homo sapiens). The experiment in a line: Activation of full length human His6-tagged AMPK alpha2/beta2/gamma1 expressed in Escherichia coli BL21-CodonPlus (DE3)-RIPL preincubated for 10 mins followed by FL-Peptide 7 substrate addition measured after 2 hrs by fluorescence assay relative to AMP.
In experiment [8] the target is T2, AMP-activated protein kinase (AMPK) alpha-1/beta-1/gamma-1 (Homo sapiens). The experiment can be described thus: Activation of full length human recombinant AMPK alpha1/beta1/gamma1 preincubated for 10 mins followed by FL-Peptide 7 addition measured after 2 hrs by fluorescence assay relative to AMP. The format is protein-complex assay.
Experiment [9] deals with T1, AMPK alpha2/beta2/gamma1 (Homo sapiens). The experiment in a line: Activation of full length human His6-tagged AMPK alpha2/beta2/gamma1 expressed in Escherichia coli BL21-CodonPlus (DE3)-RIPL preincubated for 10 mins followed by FL-Peptide 7 substrate addition measured after 2 hrs by fluorescence assay.
Experiment [10] concerns the target T2, AMP-activated protein kinase (AMPK) alpha-1/beta-1/gamma-1 (Homo sapiens). The experiment can be described thus: Activation of full length human recombinant AMPK alpha1/beta1/gamma1 preincubated for 10 mins followed by FL-Peptide 7 addition measured after 2 hrs by fluorescence assay. The format is protein-complex assay.
The target in experiment [11] is T4, 5'-AMP-activated protein kinase subunit beta-2 (Homo sapiens, UniProt O43741).
T4 sequence (O43741 whole entry): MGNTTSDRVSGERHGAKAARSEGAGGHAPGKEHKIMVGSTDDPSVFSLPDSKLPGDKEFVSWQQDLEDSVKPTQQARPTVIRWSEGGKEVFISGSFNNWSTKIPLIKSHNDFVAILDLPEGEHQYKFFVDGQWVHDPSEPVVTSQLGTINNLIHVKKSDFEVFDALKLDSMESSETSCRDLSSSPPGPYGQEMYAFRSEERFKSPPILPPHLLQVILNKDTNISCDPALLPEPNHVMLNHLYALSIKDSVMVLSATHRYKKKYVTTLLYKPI
The experiment in a line: Activation of human recombinant AMPK beta2 expressed in African green monkey COS7 cells or baculovirus infected insect cells assessed as increase in biotinylated […] (1 to 120 residues) peptide phosphorylation at Ser-79 residue measured after 60 mins by Alphascreen assay. Set-up: species or system COS-7. On the technique in general: Bead proximity is the source of the signal in Alpha formats.

Experiment [12] deals with T5, 5'-AMP-activated protein kinase subunit beta-1 (Homo sapiens, UniProt Q9Y478).
T5 sequence (Q9Y478 whole entry): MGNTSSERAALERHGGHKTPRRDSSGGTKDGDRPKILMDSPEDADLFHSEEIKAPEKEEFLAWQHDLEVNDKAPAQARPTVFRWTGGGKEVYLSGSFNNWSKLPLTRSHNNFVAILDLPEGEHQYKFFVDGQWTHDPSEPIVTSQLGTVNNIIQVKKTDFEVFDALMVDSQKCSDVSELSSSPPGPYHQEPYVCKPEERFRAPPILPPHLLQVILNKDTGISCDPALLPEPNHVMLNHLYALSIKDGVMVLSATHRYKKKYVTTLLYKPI
The experiment in a line: Activation of human recombinant AMPK beta1 expressed in African green monkey COS7 cells or baculovirus infected insect cells assessed as increase in biotinylated […] (1 to 120 residues) peptide phosphorylation at Ser-79 residue measured after 60 mins by Alphascreen assay. Set-up: species or system COS-7.

For experiment [13], the target named is AMP-activated protein kinase, AMPK (Homo sapiens) (UniProt P54646+O43741+P54619+Q9UGJ0+Q9Y478+Q13131+Q9UGI9). The experiment in a line: Activation of human recombinant AMPK assessed as increase in ADP accumulation using SAMS peptide after 30 mins by fluorescence assay.
The next experiment is filed under the species Rattus norvegicus. The experiment in a line: Activation of rat liver AMPK assessed as increase in biotinylated AMARAA peptide phosphorylation at 200 uM measured after 30 mins by DELFIA assay relative to control.
For experiment [14], the target named is AMPK alpha2/beta1/gamma1 (Homo sapiens) (UniProt P54646+P54619+Q9Y478). The experiment can be described thus: Activation of full length human recombinant AMPK alpha2/beta1/gamma1 expressed in baculovirus infected sf21 cells using 5'-FAM-SAMS peptide substrate after 45 mins by fluorescence assay relative to AMP.
AMPK alpha2/beta1/gamma1 (Homo sapiens), sequence (P54619 whole entry partner, one chain of several): as the sequence (P54619 whole entry, looked up, one chain of several) above
AMPK alpha2/beta1/gamma1 (Homo sapiens), sequence (P54646 whole entry, one chain of several): as the sequence (P54646 whole entry, looked up, one chain of several) above
Experiment [15] concerns the target T3, AMP-activated protein kinase (AMPK) alpha-1/beta-1/gamma-1. The experiment in a line: Activation of human recombinant AMPK alpha1/beta1/gamma1 expressed in Escherichia coli BL21-CodonPlus (DE3)-RIPL using SAMS peptide after 10 mins in presence of [gamma33P]ATP by scintillation counting.
The target of experiment [16] is AMP-activated protein kinase, AMPK. The experiment in a line: Activation of recombinant AMPK (unknown origin) after 30 mins in presence of [gamma33P]ATP by scintillation proximity assay. More on the design: species or system Homo sapiens.
Experiment [17] has as its target T3, AMP-activated protein kinase (AMPK) alpha-1/beta-1/gamma-1. The experiment can be described thus: (§1) Activation of human recombinant AMPK GST-tagged alpha1/Myc-tagged beta1/HA-tagged gamma1 expressed in African green monkey COS7 cells assessed as increase in SAMS peptide phosphorylation measured after 10 mins in presence of [gamma33P]ATP by scintillation counting method relative to control. The format is cell-based, COS-7.

Experiment [18] addresses T2, AMP-activated protein kinase (AMPK) alpha-1/beta-1/gamma-1 (Homo sapiens). Described as §1. Format: cell-based. The conditions noted are these: COS-7.

A word on the Emax: it is the size of the effect at its maximum, as opposed to the concentration needed. In general, EC50 refers to the concentration that produces a half-maximal response. The EC30 is the concentration at which the effect reaches the 30% level.

T2 sequence (P54619 whole entry, one chain of several): as the sequence (P54619 whole entry, looked up, one chain of several) above
T2 sequence (Q13131 whole entry partner, one chain of several): as the sequence (Q13131 whole entry, one chain of several) above

The compound `O[C@@H]1CO[C@H]2[C@@H]1OC[C@H]2Oc1cc2nc(-c3c(F)cc(N4CCOCC4)cc3F)c(F)cc2[nH]1` registered an EC150 in experiment [1] of 8.8 nM. This compound also displayed a maximal response (Emax) in [2] of 729%.
For the compound `CC(C)(O)c1ccc(-c2cc3nc(O[C@H]4CO[C@H](CO)[C@@H](O)C4)[nH]c3cc2Cl)cc1`, the %max in experiment [3] stood at 379%. Further, the EC50 in experiment [4] stood at 0.004 µM.
Consider `Cc1ccc(Oc2nc3cc(-c4ccc(N5CCOCC5)cc4)c(Cl)cc3[nH]2)cc1P(=O)(O)O`, for which the %max in experiment [5] is 224%. Moreover, the concentration giving a half-maximal response (EC50) in experiment [6] stood at 0.0012 µM.
For `Cc1ccc(Oc2nc3nc(-c4ccc(-c5ccccc5O)cc4)c(Cl)cc3[nH]2)cc1C(=O)O`, the values for the %max in experiment [7] and in experiment [8] were 292% and 355%, respectively. Further, the EC150 in [9] came out at 4.3 nM; in experiment [10], 0.42 nM.
For the compound `O=C(O)c1c[nH]c2ccc(-c3ccc(-c4c(O)cccc4O)cc3)cc12`, the concentration giving a half-maximal response (EC50) in experiment [11] is less than 5 µM; in experiment [12], less than 0.5 µM.
As to `CC1(C)Cc2cc(C(=O)O)ccc2NC1c1cccc(N2C(=O)OCC2(C)C)c1` (stereo not given), in [13], the EC30 was determined as 1.15 µM.
Turning to `COc1ccc(NC(=O)Nc2ccc(Cn3cnc(O)c3C(N)=O)cc2)cc1`, the Activity in the experiment filed under Rattus norvegicus came to 229%.
Regarding `N#Cc1ccc(-c2ccc(-c3nc4nc(O[C@@H]5CO[C@H]6[C@@H]5OC[C@H]6O)[nH]c4cc3Cl)cc2)c(F)c1`, the %max in experiment [14] amounted to 304%.
Regarding `Cc1cc(-c2ccc(/C=C3\S/C(=N\c4ccc(Cl)c(C(=O)O)c4)NC3=O)o2)c([N+](=O)[O-])cc1C`, in experiment [15], the concentration for a half-maximal effect (EC50) worked out at 0.3 µM.
As to `O=C(O)c1ccc2c(c1)C1(CC1)CC(c1cc(Cl)ccc1F)N2` (stereo not given), the half-maximal effective concentration (EC50) in experiment [16] was 1.24 µM.
On to `C(=N\c1cnc2ccccc2c1)/c1ccc2ccccc2n1`, for which the 50% effective concentration (EC50) in experiment [17] came to 1.8 µM. The fold change (FC) in experiment [18] came to 2.7.
Regarding `Cc1ccc(Oc2nc3cc(-c4ccc5c(ccn5C)c4)c(Cl)cc3[nH]2)cc1C(=O)O`, the %max in experiment [5] was 241%.
